Measured values from a compilation of properties of binary mixtures (doi:10.1021/ie501956x).

Assay: xn = mol fraction of the nth substance listed
Settings: 101 kPa

## CC(=O)[O-].CC[n+]1ccn(C)c1 + CCO
278.15 K, x2 = 0
  viscosity: 690 mPa·s
278.15 K, x2 = 0.1
  viscosity: 462 mPa·s
278.15 K, x2 = 0.2999
  viscosity: 149.8 mPa·s
278.15 K, x2 = 0.4002
  viscosity: 86.7 mPa·s
278.15 K, x2 = 0.5001
  viscosity: 44.6 mPa·s
278.15 K, x2 = 0.6
  viscosity: 23.61 mPa·s
278.15 K, x2 = 0.7
  viscosity: 12.96 mPa·s
278.15 K, x2 = 0.8
  viscosity: 6.55 mPa·s
288.15 K, x2 = 0.201
  viscosity: 130.8 mPa·s
288.15 K, x2 = 0.2999
  viscosity: 81.5 mPa·s
288.15 K, x2 = 0.4002
  viscosity: 49.1 mPa·s
288.15 K, x2 = 0.5001
  viscosity: 28.97 mPa·s
288.15 K, x2 = 0.6
  viscosity: 16.59 mPa·s
288.15 K, x2 = 0.7
  viscosity: 9.3 mPa·s
288.15 K, x2 = 0.9
  viscosity: 2.751 mPa·s
298.15 K, x2 = 0
  viscosity: 139 mPa·s
298.15 K, x2 = 0.1
  viscosity: 107.7 mPa·s
298.15 K, x2 = 0.201
  viscosity: 73.3 mPa·s
298.15 K, x2 = 0.2999
  viscosity: 49.2 mPa·s
298.15 K, x2 = 0.6
  viscosity: 12.2 mPa·s
298.15 K, x2 = 0.7
  viscosity: 7.2 mPa·s
298.15 K, x2 = 0.8
  viscosity: 4.145 mPa·s
298.15 K, x2 = 0.9
  viscosity: 2.264 mPa·s
308.15 K, x2 = 0
  viscosity: 77.3 mPa·s
308.15 K, x2 = 0.1
  viscosity: 62.8 mPa·s
308.15 K, x2 = 0.201
  viscosity: 45.4 mPa·s
308.15 K, x2 = 0.4002
  viscosity: 21.86 mPa·s
308.15 K, x2 = 0.5001
  viscosity: 14.48 mPa·s
308.15 K, x2 = 0.7
  viscosity: 5.71 mPa·s
308.15 K, x2 = 0.9
  viscosity: 1.885 mPa·s
318.15 K, x2 = 0
  viscosity: 47.4 mPa·s
318.15 K, x2 = 0.5001
  viscosity: 10.91 mPa·s
318.15 K, x2 = 0.7
  viscosity: 4.64 mPa·s
318.15 K, x2 = 0.8
  viscosity: 2.829 mPa·s
328.15 K, x2 = 0
  viscosity: 31.3 mPa·s
328.15 K, x2 = 0.1
  viscosity: 26.89 mPa·s
328.15 K, x2 = 0.201
  viscosity: 21 mPa·s
328.15 K, x2 = 0.2999
  viscosity: 15.99 mPa·s
328.15 K, x2 = 0.4002
  viscosity: 11.82 mPa·s
328.15 K, x2 = 0.5001
  viscosity: 8.49 mPa·s
328.15 K, x2 = 0.6
  viscosity: 5.84 mPa·s
328.15 K, x2 = 0.8
  viscosity: 2.391 mPa·s
328.15 K, x2 = 0.9
  viscosity: 1.355 mPa·s
338.15 K, x2 = 0.1
  viscosity: 19.14 mPa·s
338.15 K, x2 = 0.201
  viscosity: 15.4 mPa·s
338.15 K, x2 = 0.2999
  viscosity: 12.05 mPa·s
338.15 K, x2 = 0.4002
  viscosity: 9.18 mPa·s
338.15 K, x2 = 0.5001
  viscosity: 6.77 mPa·s
338.15 K, x2 = 0.6
  viscosity: 4.79 mPa·s
338.15 K, x2 = 0.7
  viscosity: 3.218 mPa·s
338.15 K, x2 = 0.9
  viscosity: 1.165 mPa·s

## CCO + CC(=O)[O-].CC[n+]1ccn(C)c1
278.15 K, x1 = 1
  viscosity: 1.582 mPa·s
288.15 K, x1 = 1
  viscosity: 1.31 mPa·s
298.15 K, x1 = 1
  viscosity: 1.081 mPa·s
308.15 K, x1 = 1
  viscosity: 0.899 mPa·s
328.15 K, x1 = 1
  viscosity: 0.638 mPa·s
